Measured values published in US12440529B2, “Topical Croton lechleri compositions and their use in the treatment of a bacterial colonization or primary or secondary bacterial infection of an underlying skin disorder” (ALPHYN BIOLOGICS, INC., priority 2020, dated 2025).
Read-outs that look alike come from different tables or passages of the source.

How the values were obtained:
cells = conditions: Chen, Planta Med. 60 (1994), cited from earlier work; for effect on cell proliferation: compounds obtained through extraction; for healing effects: Ecuadorian sap
[1] = tested on: S. pyogenes (Erythromycin and Tetracycline resistant strains); test: MIC/MBC assay (2-fold microdilution, CAMHB with […] laked horse blood); type: cell-based; conditions: Streptococcus pyogenes
Description: (§1) Tables 26 and 27 show an assay whose setup is same as what was used for screening S. aureus and P. aeruginosa (i.e. 2-fold microdilution). The 20 strains of S. pyogenes assayed were selected from the two rounds of antibiotic screening to identify Erythromycin and Tetracycline resistant strains. […] For this feasibility study, AB-101 Lot 1 and Lot 2 was used. P. aeruginosa ATCC 27853 was tested as a positive control for AB-101 activity.

Pseudomonas aeruginosa = test: In vitro MIC/MBC assay (2-fold microdilution), multi-drug resistant strain panel; type: cell-based
Text: Of the 20, 5 are known to be Verona integron-encoded metallo-beta-lactamase (VIM)—producing Pseudomonas aeruginosa which are drug resistant strains of Pseudomonas aeruginosa, another 5 are know to be Klebsiella pneumoniae carbapenemase (KPC) producing Pseudomonas aeruginosa strains which are drug resistant strains of Pseudomonas aeruginosa, and 4 are known to be IMP-Type Metallo-β-Lactamase (IMP))—producing Pseudomonas aeruginosa which are drug resistant strains of Pseudomonas aeruginosa. The 6 remaining strains are known to be antibiotic resistant and are listed simply as MDR strains. […]

[2] = tested on: MSSA strains (Mupirocin-resistant and Mupirocin-susceptible; QC ATCC 29213); test: In vitro MIC/MBC assay (2-fold microdilution), S. aureus strain panel; type: cell-based, Staphylococcus aureus
Description: (§2) AB-101 was tested against an extensive variety of bacterial strains, including Mupirocin-resistant MRSA, Mupirocin-resistant MSSA, Mupirocin-susceptible MSSA, Mupirocin-susceptible MRSA, and other skin-related pathogens.
(§3) Measures included the minimum inhibitory concentration (MIC) which is the lowest concentration of AB-101 that prevents visible growth of the bacterium or pathogen, and minimum bactericidal concentration (MBC) which is the lowest concentration of an antibacterial agent required to kill a bacterium.
(§4) AB-101 Lots 01, 02 and a purified extract of taspine for MIC are compared. […] Taspine may have additional synergistic benefits to be included in the whole extract in the final product for the effective treatment of a bacterial colonization or primary or secondary bacterial infection of an underlying skin disorder.
as §4, with “taspine for MBC are compared.” for “taspine for MIC are compared.”, “treatment of bacterial colonization” for “treatment of a bacterial colonization”
as §1

[3] = tested on: MRSA strains (Mupirocin-resistant and Mupirocin-susceptible); test: as above; type: cell-based, Staphylococcus aureus; conditions: for MIC: Staphylococcus aureus
Description: as §2, §3, §4
as §4, with “taspine for MBC are compared.” for “taspine for MIC are compared.”, “treatment of bacterial colonization” for “treatment of a bacterial colonization”
as §1

[4] = S. pyogenes strain 1744264, read-out: MIC
[5] = S. pyogenes strain 1744265, read-out: MIC
[6] = S. pyogenes strain 1744271, read-out: MIC
[7] = S. pyogenes strain 1744272, read-out: MIC
[8] = S. pyogenes strain 1744275, read-out: MIC
[9] = S. pyogenes strain 1744277, read-out: MIC
[10] = S. pyogenes strain 1744285, read-out: MIC
[11] = S. pyogenes strain 2065754, read-out: MIC
[12] = S. pyogenes strain 2065755, read-out: MIC
[13] = S. pyogenes strain 2065756, read-out: MIC
[14] = S. pyogenes strain 2065757, read-out: MIC
[15] = S. pyogenes strain 2065759, read-out: MIC
[16] = S. pyogenes strain 2065760, read-out: MIC
[17] = S. pyogenes strain 2065761, read-out: MIC
[18] = S. pyogenes strain 2065762, read-out: MIC
[19] = S. pyogenes strain 2065763, read-out: MIC
[20] = S. pyogenes strain 2065765, read-out: MIC
[21] = S. pyogenes strain 20658748, read-out: MIC
[22] = S. pyogenes strain 20658749, read-out: MIC
[23] = S. pyogenes strain 20658750, read-out: MIC
[24] = Staphylococcus aureus, strain CDC 461, MupirocinS, MSSA
[25] = Staphylococcus aureus, strain CDC 461; MupirocinS, MSSA

Oc1cc(O)c2c(c1)O[C@H](c1ccc(O)c(O)c1)[C@@H](O)C2 [Catechin, catechin]
little effect: effect on cell proliferation (cells)

CC[C@H]1OC(=O)[C@H](C)[C@@H](O[C@H]2C[C@@](C)(OC)[C@@H](O)[C@H](C)O2)[C@H](C)[C@@H](O[C@@H]2O[C@H](C)C[C@H](N(C)C)[C@H]2O)[C@](C)(O)C[C@@H](C)C(=O)[C@H](C)[C@@H](O)[C@]1(C)O [Erythromycin]
0.5 µg/mL: MIC [1, 9]
4 µg/mL: MIC [1, 15]
> 16 µg/mL: MIC [1, 5] | MIC [1, 6] | MIC [1, 7] | MIC [1, 8] | MIC [1, 10] | MIC [1, 11] | MIC [1, 14] | MIC [1, 17] | MIC [1, 20]
1 µg/mL: MIC [1, 22] | MIC [1, 23]
2 µg/mL: MIC [1, 4] | MIC [1, 12] | MIC [1, 13] | MIC [1, 16] | MIC [1, 18] | MIC [1, 19] | MIC [1, 21]

C[C@@H](O)[C@H]1C(=O)N2C(C(=O)O)=C(SCCN=CN)C[C@H]12 [Imipenem]
16 µg/mL: MIC (Pseudomonas aeruginosa; strain CDC 0353, MDR) | MIC (Pseudomonas aeruginosa; strain CDC 0357, MDR) | MIC (Pseudomonas aeruginosa; strain CDC 0508, MDR)
> 64 µg/mL: MIC (Pseudomonas aeruginosa; strain CDC 0064, MDR) | MIC (Pseudomonas aeruginosa; strain CDC 0092, IMP) | MIC (Pseudomonas aeruginosa; strain CDC 0103, IMP) | MIC (Pseudomonas aeruginosa; strain CDC 0230, VIM) | MIC (Pseudomonas aeruginosa; strain CDC 0231, KPC) | MIC (Pseudomonas aeruginosa; strain CDC 0239, VIM) | MIC (Pseudomonas aeruginosa; strain CDC 0241, IMP) | MIC (Pseudomonas aeruginosa; strain CDC 0246, MDR) | MIC (Pseudomonas aeruginosa; strain CDC 0250, MDR) | MIC (Pseudomonas aeruginosa; strain CDC 0254, VIM) | MIC (Pseudomonas aeruginosa; strain CDC 0255, VIM) | MIC (Pseudomonas aeruginosa; strain CDC 0356, KPC) | MIC (Pseudomonas aeruginosa; strain CDC 0439, IMP) | MIC (Pseudomonas aeruginosa; strain CDC 0441, KPC) | MIC (Pseudomonas aeruginosa; strain CDC 0509, VIM) | MIC (Pseudomonas aeruginosa; strain CDC 0516, KPC) | MIC (Pseudomonas aeruginosa; strain CDC 0518, KPC)
2 µg/mL: MIC (Pseudomonas aeruginosa; ATCC27853, strain ATCC 27853, QC strain)

COc1cccc(OC)c1C(=O)N[C@@H]1C(=O)N2[C@@H]1SC(C)(C)[C@@H]2C(=O)O [Methicillin]
8 µg/mL: MIC ([2]; Staphylococcus aureus, strain CDC 462, MupirocinS, MSSA) | MIC ([2]; Staphylococcus aureus, strain CDC 462; MupirocinS, MSSA)
2 µg/mL: MIC ([2]; Staphylococcus aureus, strain CDC 464, MupirocinS, MSSA) | MIC ([2]; Staphylococcus aureus, strain CDC 464; MupirocinS, MSSA) | MIC ([2]; Staphylococcus aureus, strain CDC 484, MupirocinS, MSSA) | MIC ([2]; Staphylococcus aureus, strain CDC 484; MupirocinS, MSSA)
1 to 2 µg/mL: MIC ([2]; Staphylococcus aureus, strain ATCC 29213, QC control) | MIC ([2]; Staphylococcus aureus, strain ATCC 29213; QC control)
4 to 8 µg/mL: MIC [2, 24] | MIC [2, 25]
16 to 32 µg/mL: MIC ([3]; strain CDC 481, MupirocinS)
2 to 8 µg/mL: MIC ([2]; Staphylococcus aureus, strain 1674606, MupirocinR, MSSA) | MIC ([2]; Staphylococcus aureus, strain 1674606; MupirocinR, MSSA)
> 64 µg/mL: MIC ([3]; strain 1674607, MupirocinR) | MIC ([3]; strain CDC 218, MupirocinR) | MIC ([3]; strain CDC 224, MupirocinR)
32 to 64 µg/mL: MIC ([3]; strain CDC 480, MupirocinS)
8 to 16 µg/mL: MIC ([2]; Staphylococcus aureus, strain CDC 463, MupirocinS, MSSA) | MIC ([2]; Staphylococcus aureus, strain CDC 463; MupirocinS, MSSA)
8 to 32 µg/mL: MIC ([3]; strain CDC 482, MupirocinS)
2 to 4 µg/mL: MIC ([2]; Staphylococcus aureus, strain 1674608, MupirocinR, MSSA) | MIC ([2]; Staphylococcus aureus, strain 1674608; MupirocinR, MSSA) | MIC ([2]; Staphylococcus aureus, strain CDC 485, MupirocinS, MSSA) | MIC ([2]; Staphylococcus aureus, strain CDC 485; MupirocinS, MSSA)
64 µg/mL: MIC ([3]; strain 1674611, MupirocinR) | MIC ([3]; strain CDC 227, MupirocinS) | MIC ([3]; strain CDC 228, MupirocinR) | MIC ([3]; strain CDC 483, MupirocinS)

C/C(=C\C(=O)OCCCCCCCCC(=O)O)C[C@@H]1OC[C@H](C[C@@H]2O[C@H]2[C@@H](C)[C@H](C)O)[C@@H](O)[C@H]1O [Mupirocin]
0.25 to 1 µg/mL: MIC [2, 24] | MIC [2, 25]
0.25 µg/mL: MIC [1, 4] | MIC [1, 7]
≤ 0.125 µg/mL: MIC [1, 8] | MIC [1, 9] | MIC [1, 10] | MIC [1, 11] | MIC [1, 12] | MIC [1, 13] | MIC [1, 14] | MIC [1, 15] | MIC [1, 16] | MIC [1, 17] | MIC [1, 18] | MIC [1, 19] | MIC [1, 20] | MIC [1, 21] | MIC [1, 22] | MIC [1, 23]
0.5 µg/mL: MIC [1, 5] | MIC [1, 6]

CN(C)[C@@H]1C(O)=C(C(N)=O)C(=O)[C@@]2(O)C(O)=C3C(=O)c4c(O)cccc4[C@@](C)(O)[C@H]3C[C@@H]12 [Tetracycline]
> 16 µg/mL: MIC [1, 10] | MIC [1, 12] | MIC [1, 13] | MIC [1, 16] | MIC [1, 18] | MIC [1, 23]
0.25 µg/mL: MIC [1, 4] | MIC [1, 8] | MIC [1, 9]
8 µg/mL: MIC [1, 5] | MIC [1, 7]
16 µg/mL: MIC [1, 6] | MIC [1, 11] | MIC [1, 14] | MIC [1, 21] | MIC [1, 22]
2 to 4 µg/mL: MIC [1, 20]

CN[C@H](CC(C)C)C(=O)N[C@H]1C(=O)N[C@@H](CC(N)=O)C(=O)N[C@H]2C(=O)N[C@H]3C(=O)N[C@H](C(=O)N[C@H](C(=O)O)c4cc(O)cc(O)c4-c4cc3ccc4O)[C@H](O)c3ccc(c(Cl)c3)Oc3cc2cc(c3O[C@@H]2O[C@H](CO)[C@@H](O)[C@H](O)[C@H]2O[C@H]2C[C@](C)(N)[C@H](O)[C@H](C)O2)Oc2ccc(cc2Cl)[C@H]1O [Vancomycin]
0.5 µg/mL: MIC ([1]; S. pyogenes strain 1744264) | MIC ([1]; S. pyogenes strain 1744271) | MIC ([1]; S. pyogenes strain 1744285) | MIC ([1]; S. pyogenes strain 2065754) | MIC ([1]; S. pyogenes strain 2065755) | MIC ([1]; S. pyogenes strain 2065756) | MIC ([1]; S. pyogenes strain 2065757) | MIC ([1]; S. pyogenes strain 2065759) | MIC ([1]; S. pyogenes strain 2065760) | MIC ([1]; S. pyogenes strain 2065761) | MIC ([1]; S. pyogenes strain 2065762) | MIC ([1]; S. pyogenes strain 2065763) | MIC ([1]; S. pyogenes strain 20658749) | MIC ([1]; S. pyogenes strain 20658750)
0.25 to 0.5 µg/mL: MIC ([1]; S. pyogenes strain 1744275) | MIC ([1]; S. pyogenes strain 20658748)
8 µg/mL: MIC ([1]; S. pyogenes strain 1744265)
2 to 4 µg/mL: MIC ([1]; S. pyogenes strain 2065765)
4 µg/mL: MIC ([1]; S. pyogenes strain 1744277)
1 µg/mL: MIC ([1]; S. pyogenes strain 1744272)

COc1ccc([C@H]2Oc3c(OC)cc(CCCO)cc3[C@@H]2CO)cc1OC [dimethylcedrusin]
little healing effects: healing effects (cells)

Oc1cc(O)c2c(c1)O[C@H](c1cc(O)c(O)c(O)c1)[C@@H](O)C2 [gallocatechin]
slightly stimulating: effect on cell proliferation (cells)

COc1ccc2c(=O)oc3c(OC)cc(CCN(C)C)c4c(=O)oc1c2c34 [taspine]
little healing effects: healing effects (cells)
does not have activity: activity by MBC ([2]; MSSA) | activity by MIC ([2]; MSSA; highest taspine concentration tested 10 μg/mL (50% relative to AB-101)) | activity by MBC [3] | activity by MIC ([3]; highest taspine concentration tested 10 μg/mL (50% relative to AB-101))

epicatechin
little effect: effect on cell proliferation (cells)

epigallocatechin [epigalocatechin]
slightly stimulating: effect on cell proliferation (cells)
